Values of other authors in paper PMC9851200, “Multiparameter phenotypic screening for endogenous TFEB and TFE3 translocation identifies novel chemical series modulating lysosome function” (Autophagy, 2022).

Columns and labels:
Set-up in all cases: method as in original PKIS2 published data
[1] = target: kinases (KINOMEscan panel) (Homo sapiens, UniProt P49336); conditions: CDK8; Published KINOMEscan; ref original PKIS2 published data; cited from earlier work
[2] = target: kinases (KINOMEscan panel) (Homo sapiens, UniProt P53355); conditions: kinase DAPK1; Published KINOMEscan; ref original PKIS2 published data; cited from earlier work
Chain of kinases (KINOMEscan panel) (Homo sapiens, UniProt P53355) (P53355 whole entry): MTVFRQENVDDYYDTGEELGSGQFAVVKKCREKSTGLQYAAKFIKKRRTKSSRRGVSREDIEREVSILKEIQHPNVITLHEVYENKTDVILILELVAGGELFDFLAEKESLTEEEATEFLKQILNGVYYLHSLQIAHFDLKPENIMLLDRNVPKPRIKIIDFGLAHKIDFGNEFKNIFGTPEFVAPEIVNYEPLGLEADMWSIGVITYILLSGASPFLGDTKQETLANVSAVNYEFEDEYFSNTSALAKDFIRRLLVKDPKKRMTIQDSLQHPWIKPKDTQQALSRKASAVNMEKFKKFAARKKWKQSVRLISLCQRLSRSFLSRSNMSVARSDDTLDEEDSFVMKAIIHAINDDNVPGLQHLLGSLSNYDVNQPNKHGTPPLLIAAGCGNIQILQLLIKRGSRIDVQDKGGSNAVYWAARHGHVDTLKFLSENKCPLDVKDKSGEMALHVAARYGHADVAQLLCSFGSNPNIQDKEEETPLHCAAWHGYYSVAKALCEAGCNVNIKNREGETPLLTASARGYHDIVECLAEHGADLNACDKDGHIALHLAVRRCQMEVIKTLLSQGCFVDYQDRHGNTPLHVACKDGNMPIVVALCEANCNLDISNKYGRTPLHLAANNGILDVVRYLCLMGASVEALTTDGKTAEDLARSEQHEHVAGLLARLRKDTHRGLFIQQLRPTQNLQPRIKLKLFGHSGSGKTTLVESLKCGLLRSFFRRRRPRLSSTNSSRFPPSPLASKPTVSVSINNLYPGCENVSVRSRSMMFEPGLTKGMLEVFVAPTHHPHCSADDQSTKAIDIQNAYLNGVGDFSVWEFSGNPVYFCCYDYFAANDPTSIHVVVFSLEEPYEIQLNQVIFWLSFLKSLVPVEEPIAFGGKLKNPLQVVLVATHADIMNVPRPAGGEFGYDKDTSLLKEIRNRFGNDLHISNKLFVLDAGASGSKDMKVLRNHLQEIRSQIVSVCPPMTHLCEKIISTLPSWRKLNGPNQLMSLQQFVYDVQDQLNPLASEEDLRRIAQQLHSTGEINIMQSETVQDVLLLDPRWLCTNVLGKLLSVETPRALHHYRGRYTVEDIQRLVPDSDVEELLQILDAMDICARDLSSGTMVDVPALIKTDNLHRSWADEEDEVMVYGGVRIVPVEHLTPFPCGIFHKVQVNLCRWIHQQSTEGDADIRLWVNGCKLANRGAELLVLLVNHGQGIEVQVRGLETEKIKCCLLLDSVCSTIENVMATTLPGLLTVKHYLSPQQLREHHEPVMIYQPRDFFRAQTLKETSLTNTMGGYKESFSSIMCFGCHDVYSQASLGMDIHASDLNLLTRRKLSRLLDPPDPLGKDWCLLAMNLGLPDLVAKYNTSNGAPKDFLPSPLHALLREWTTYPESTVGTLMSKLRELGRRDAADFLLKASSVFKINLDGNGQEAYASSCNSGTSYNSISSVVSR

[3] = target: T1, kinases (KINOMEscan panel) (Homo sapiens, UniProt P57078); conditions: RIPK4; Published KINOMEscan; ref original PKIS2 published data; cited from earlier work
T1 sequence (P57078 1-832): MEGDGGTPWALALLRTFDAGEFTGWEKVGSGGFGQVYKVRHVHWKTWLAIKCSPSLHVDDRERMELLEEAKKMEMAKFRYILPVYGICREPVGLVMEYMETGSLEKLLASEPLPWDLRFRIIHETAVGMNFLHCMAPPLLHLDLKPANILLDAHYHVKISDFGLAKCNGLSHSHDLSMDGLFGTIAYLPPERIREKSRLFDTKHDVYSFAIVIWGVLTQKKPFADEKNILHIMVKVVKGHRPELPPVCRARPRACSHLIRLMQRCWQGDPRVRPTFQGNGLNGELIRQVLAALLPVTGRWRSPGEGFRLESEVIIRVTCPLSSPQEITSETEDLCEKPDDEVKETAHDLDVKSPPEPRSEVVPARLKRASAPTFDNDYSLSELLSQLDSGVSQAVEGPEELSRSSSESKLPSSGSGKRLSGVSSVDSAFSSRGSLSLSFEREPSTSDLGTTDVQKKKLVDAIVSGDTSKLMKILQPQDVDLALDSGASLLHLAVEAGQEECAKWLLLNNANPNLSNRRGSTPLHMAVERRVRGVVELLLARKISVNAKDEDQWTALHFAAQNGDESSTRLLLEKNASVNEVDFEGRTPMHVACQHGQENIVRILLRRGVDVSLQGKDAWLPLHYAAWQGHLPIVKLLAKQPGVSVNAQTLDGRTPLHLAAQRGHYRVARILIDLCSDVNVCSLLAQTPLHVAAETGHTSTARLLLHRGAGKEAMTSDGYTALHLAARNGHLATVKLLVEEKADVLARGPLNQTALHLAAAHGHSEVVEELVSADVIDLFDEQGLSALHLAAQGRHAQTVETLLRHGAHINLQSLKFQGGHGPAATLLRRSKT

[4] = target: kinases (KINOMEscan panel) (Homo sapiens, UniProt Q16513); conditions: kinase PKN2; Published KINOMEscan; ref original PKIS2 published data; cited from earlier work
Chain of kinases (KINOMEscan panel) (Homo sapiens, UniProt Q16513) (Q16513 whole entry): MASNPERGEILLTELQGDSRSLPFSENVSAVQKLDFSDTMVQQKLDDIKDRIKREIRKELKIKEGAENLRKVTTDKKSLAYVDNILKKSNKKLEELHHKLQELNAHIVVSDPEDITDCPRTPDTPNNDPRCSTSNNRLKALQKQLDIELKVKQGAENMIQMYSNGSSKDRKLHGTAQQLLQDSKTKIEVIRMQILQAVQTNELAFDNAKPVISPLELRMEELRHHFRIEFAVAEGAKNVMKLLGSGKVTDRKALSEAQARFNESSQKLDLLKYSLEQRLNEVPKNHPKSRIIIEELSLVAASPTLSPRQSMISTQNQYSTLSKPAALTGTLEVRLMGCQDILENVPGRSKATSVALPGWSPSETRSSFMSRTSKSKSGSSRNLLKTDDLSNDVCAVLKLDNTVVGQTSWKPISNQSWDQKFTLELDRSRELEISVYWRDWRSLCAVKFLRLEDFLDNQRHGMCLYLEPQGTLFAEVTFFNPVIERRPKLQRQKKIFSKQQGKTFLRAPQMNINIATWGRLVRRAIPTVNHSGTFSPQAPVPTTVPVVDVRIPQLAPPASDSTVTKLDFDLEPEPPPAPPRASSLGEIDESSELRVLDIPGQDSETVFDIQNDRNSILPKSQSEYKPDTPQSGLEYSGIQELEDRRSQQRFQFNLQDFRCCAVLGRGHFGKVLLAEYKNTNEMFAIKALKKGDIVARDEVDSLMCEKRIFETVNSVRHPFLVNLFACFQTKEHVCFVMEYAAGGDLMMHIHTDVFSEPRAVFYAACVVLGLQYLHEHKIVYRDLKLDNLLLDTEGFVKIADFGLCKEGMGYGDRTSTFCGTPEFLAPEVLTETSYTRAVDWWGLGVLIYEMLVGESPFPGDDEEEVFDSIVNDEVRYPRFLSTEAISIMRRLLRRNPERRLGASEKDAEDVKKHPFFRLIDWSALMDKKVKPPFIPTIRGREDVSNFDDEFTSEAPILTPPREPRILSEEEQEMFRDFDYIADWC

[5] = target: T2, kinases (KINOMEscan panel) (Homo sapiens, UniProt Q8NFD2); conditions: ANKK1; Published KINOMEscan; ref original PKIS2 published data; cited from earlier work
T2 sequence (Q8NFD2 1-765): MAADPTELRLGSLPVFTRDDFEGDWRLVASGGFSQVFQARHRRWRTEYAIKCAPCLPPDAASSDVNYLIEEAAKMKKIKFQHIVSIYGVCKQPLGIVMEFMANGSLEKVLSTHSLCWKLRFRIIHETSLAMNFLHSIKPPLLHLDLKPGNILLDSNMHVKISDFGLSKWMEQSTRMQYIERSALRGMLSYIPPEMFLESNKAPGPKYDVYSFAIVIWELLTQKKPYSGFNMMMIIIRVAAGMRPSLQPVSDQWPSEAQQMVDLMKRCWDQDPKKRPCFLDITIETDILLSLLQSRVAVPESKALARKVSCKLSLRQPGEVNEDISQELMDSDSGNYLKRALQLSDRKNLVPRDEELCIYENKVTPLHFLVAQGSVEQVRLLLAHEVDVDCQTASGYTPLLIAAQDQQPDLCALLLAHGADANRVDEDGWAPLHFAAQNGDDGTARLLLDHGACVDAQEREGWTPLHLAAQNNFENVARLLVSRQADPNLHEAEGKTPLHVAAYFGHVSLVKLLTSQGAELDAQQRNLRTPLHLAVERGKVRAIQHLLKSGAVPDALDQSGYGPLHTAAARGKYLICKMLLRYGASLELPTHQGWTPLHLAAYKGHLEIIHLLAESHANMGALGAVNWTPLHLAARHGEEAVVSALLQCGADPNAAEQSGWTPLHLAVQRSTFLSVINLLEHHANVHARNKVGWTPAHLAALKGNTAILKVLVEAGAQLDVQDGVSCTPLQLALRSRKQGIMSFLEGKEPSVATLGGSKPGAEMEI

[6] = target: kinases (KINOMEscan panel) (Homo sapiens, UniProt Q9H4A3); conditions: Published KINOMEscan; ref original PKIS2 published data; cited from earlier work
Chain of kinases (KINOMEscan panel) (Homo sapiens, UniProt Q9H4A3) (Q9H4A3 whole entry): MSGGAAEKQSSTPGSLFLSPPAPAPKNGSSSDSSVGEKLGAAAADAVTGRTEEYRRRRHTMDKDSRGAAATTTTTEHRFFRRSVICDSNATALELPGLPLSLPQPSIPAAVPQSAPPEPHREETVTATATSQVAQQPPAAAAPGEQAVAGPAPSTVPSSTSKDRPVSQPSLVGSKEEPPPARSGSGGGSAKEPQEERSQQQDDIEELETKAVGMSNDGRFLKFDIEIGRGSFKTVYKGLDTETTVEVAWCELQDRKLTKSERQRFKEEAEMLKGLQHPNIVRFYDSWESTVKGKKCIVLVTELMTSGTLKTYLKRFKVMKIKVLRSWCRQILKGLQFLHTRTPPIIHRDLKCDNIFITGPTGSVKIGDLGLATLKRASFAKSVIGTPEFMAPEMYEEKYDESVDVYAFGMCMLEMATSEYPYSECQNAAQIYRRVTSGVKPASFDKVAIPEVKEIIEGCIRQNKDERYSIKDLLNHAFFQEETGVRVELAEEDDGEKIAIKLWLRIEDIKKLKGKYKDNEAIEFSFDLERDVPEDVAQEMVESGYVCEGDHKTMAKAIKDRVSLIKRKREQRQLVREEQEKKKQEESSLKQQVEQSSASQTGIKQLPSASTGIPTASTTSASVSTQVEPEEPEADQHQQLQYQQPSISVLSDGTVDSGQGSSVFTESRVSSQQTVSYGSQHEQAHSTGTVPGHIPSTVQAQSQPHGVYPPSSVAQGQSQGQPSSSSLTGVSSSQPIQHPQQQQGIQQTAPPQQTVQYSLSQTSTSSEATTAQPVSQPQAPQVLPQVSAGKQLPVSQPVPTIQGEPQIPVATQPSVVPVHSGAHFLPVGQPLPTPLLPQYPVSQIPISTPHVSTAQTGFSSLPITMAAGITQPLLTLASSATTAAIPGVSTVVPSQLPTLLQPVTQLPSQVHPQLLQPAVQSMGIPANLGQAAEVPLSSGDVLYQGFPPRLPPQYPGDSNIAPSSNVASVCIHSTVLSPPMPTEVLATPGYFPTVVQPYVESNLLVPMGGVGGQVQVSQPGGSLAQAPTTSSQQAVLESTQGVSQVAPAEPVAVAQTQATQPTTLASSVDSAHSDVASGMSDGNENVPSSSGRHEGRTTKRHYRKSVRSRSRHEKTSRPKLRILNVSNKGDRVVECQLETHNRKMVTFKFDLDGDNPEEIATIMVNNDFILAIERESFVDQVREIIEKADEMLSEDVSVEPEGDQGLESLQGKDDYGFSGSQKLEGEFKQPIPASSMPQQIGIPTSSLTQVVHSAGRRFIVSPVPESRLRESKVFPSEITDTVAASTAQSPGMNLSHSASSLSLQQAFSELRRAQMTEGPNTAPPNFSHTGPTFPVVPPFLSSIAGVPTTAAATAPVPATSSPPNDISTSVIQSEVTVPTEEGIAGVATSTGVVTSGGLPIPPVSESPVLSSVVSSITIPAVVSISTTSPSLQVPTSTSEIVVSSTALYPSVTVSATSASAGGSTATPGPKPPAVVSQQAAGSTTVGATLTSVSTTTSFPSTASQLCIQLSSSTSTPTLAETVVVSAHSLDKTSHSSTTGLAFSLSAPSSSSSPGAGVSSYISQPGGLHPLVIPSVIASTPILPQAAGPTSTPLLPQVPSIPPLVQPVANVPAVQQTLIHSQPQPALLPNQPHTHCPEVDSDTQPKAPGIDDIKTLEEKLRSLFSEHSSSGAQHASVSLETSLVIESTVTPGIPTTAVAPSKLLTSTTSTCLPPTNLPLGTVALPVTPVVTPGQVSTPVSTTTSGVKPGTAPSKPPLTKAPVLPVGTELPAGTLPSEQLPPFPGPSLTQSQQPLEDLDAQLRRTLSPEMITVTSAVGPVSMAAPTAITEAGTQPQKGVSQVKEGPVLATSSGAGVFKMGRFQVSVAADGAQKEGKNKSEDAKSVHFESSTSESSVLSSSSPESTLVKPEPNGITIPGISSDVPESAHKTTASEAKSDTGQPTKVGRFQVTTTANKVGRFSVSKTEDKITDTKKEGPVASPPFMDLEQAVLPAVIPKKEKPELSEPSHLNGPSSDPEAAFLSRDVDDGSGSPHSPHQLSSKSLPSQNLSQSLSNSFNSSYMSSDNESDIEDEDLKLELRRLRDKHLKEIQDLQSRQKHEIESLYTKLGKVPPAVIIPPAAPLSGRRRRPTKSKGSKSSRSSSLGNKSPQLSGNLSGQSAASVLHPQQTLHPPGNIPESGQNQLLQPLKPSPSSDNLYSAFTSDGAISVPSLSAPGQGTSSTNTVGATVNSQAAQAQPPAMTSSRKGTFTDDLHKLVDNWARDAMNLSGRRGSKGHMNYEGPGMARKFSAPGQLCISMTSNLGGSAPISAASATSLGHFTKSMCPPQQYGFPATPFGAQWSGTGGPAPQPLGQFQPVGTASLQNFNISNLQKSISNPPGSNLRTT

[7] = target: T3, kinases (KINOMEscan panel) (Homo sapiens, UniProt Q9UPZ9); conditions: CILK1; Published KINOMEscan; ref original PKIS2 published data; cited from earlier work
T3 sequence (Q9UPZ9 1-632): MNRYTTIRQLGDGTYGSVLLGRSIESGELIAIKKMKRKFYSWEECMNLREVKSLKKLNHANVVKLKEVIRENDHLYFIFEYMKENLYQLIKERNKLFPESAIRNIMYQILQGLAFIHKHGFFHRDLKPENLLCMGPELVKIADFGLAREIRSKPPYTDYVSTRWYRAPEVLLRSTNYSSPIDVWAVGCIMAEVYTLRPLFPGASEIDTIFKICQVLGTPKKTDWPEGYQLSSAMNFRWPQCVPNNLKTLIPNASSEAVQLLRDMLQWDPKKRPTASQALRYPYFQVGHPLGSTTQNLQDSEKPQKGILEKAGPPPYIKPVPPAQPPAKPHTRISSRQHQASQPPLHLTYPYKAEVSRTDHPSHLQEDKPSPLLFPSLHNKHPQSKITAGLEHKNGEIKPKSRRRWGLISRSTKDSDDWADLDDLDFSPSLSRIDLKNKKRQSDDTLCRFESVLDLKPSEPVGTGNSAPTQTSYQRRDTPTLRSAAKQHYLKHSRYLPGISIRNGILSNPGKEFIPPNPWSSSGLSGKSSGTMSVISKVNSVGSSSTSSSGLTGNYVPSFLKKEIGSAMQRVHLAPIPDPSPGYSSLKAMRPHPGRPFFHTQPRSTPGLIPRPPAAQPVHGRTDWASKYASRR

Compound: Cc1cccc(-c2nc(Nc3ccncc3)c3ccccc3n2)n1 [NK215]
- KINOMEscan CDK8 [1]: 65
- KINOMEscan DAPK1 [2]: 0
- KINOMEscan RIPK4 [3]: 0
- KINOMEscan PKN2 [4]: 0
- KINOMEscan ANKK1 [5]: 0
- KINOMEscan WNK1 [6]: 0
- KINOMEscan CILK1 [7]: 0
